Experimental data from PubChem BioAssay AID256 (DTP/NCI, 2004).
Values joined by “and” are separate entries in the source; they are usually repeats but may differ in a detail not shown here. Equal values may be shown once. Toxic doses and inconclusive results are not listed. The calls were made as follows: active = survival T/C of 150% or more; inactive = T/C below 125% in these data.

Test system: CD2F1 mice, L1210 leukemia ip, survival T/C
Assay: NCI In Vivo Anticancer Drug Screen. Data for tumor model L1210 Leukemia (intraperitoneal) in CD2F1 (CDF1) mice
Settings: higher = longer survival
Procedure, shortened: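 Tumor-bearing mice (transplanted tumor) were split into treated and vehicle control groups, and the measured endpoint of each treated group was divided by that of its vehicle controls.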

[1] = endpoint: mean survival time, dose: 50.0 mg/kg/injection, schedule: Q01DX009 (ip), vehicle: saline with Tween-80
[2] = endpoint: mean survival time, dose: 100.0 mg/kg/injection, schedule: Q01DX001 (ip), vehicle: saline
[3] = endpoint: mean survival time, dose: 100.0 mg/kg/injection, schedule: Q01DX009 (ip), vehicle: saline with Tween-80
[4] = endpoint: mean survival time, dose: 200.0 mg/kg/injection, schedule: Q01DX001 (ip), vehicle: saline
[5] = endpoint: mean survival time, dose: 200.0 mg/kg/injection, schedule: Q01DX009 (ip), vehicle: saline with Tween-80
[6] = endpoint: mean survival time, dose: 400.0 mg/kg/injection, schedule: Q01DX001 (ip), vehicle: saline
[7] = endpoint: mean survival time, dose: 100.0 mg/kg/injection, schedule: Q04DX002 (ip), vehicle: saline with Tween-80
[8] = endpoint: mean survival time, dose: 100.0 mg/kg/injection, schedule: Q04DX003 (ip), vehicle: saline with Tween-80
[9] = endpoint: mean survival time, dose: 200.0 mg/kg/injection, schedule: Q04DX002 (ip), vehicle: saline with Tween-80
[10] = endpoint: mean survival time, dose: 200.0 mg/kg/injection, schedule: Q04DX003 (ip), vehicle: saline with Tween-80
[11] = endpoint: mean survival time, dose: 400.0 mg/kg/injection, schedule: Q04DX002 (ip), vehicle: saline with Tween-80
[12] = endpoint: mean survival time, dose: 400.0 mg/kg/injection, schedule: Q04DX003 (ip), vehicle: saline with Tween-80
[13] = endpoint: mean survival time, dose: 25.0 mg/kg/injection, schedule: Q01DX009 (ip), vehicle: saline with Tween-80
[14] = endpoint: mean survival time, dose: 100.0 mg/kg/injection, schedule: Q01DX001 (ip), vehicle: saline with Tween-80
[15] = endpoint: mean survival time, dose: 400.0 mg/kg/injection, schedule: Q01DX001 (ip), vehicle: saline with Tween-80
[16] = endpoint: mean survival time, dose: 400.0 mg/kg/injection, schedule: Q01DX009 (ip), vehicle: saline with Tween-80

Measured: T/C

Cc1cc(=O)[nH]c2ccccc12
inactive: [1] 96 % of control | [2] 98 % of control | [3] 96 % of control | [4] 98 % of control | [5] 103 % of control | [6] 102 % of control

Cc1ccc(NC(=O)N(C)N=O)cc1
inactive: endpoint: mean survival time, dose: 89.0 mg/kg/injection, schedule: Q01DX001 (ip), vehicle: other 89 % of control | endpoint: mean survival time, dose: 133.0 mg/kg/injection, schedule: Q01DX001 (ip), vehicle: other 87 % of control | endpoint: mean survival time, dose: 200.0 mg/kg/injection, schedule: Q01DX001 (ip), vehicle: other 89 % of control | endpoint: mean survival time, dose: 300.0 mg/kg/injection, schedule: Q01DX001 (ip), vehicle: other 93 % of control

CNC/C(C)=C/Cl
inactive: endpoint: mean survival time, dose: 50.0 mg/kg/injection, schedule: Q01DX009 (ip), vehicle: acetone 96 % of control | endpoint: mean survival time, dose: 100.0 mg/kg/injection, schedule: Q01DX009 (ip), vehicle: acetone 90 % of control

CCC1Cc2c([nH]c(=O)n(C)c2=O)O1 (stereo not given)
inactive: [2] 97 % of control | [4] 97 % of control | [6] 97 % of control

Cc1cccc(CC(C)O)n1 (stereo not given)
inactive: [2] 96 % of control | [7] 97 % of control | endpoint: mean survival time, dose: 100.0 mg/kg/injection, schedule: Q04DX002 (ip), vehicle: saline 93 % of control | [8] 96 % of control and 97 % of control | [4] 94 % of control | [9] 106 % of control | endpoint: mean survival time, dose: 200.0 mg/kg/injection, schedule: Q04DX002 (ip), vehicle: saline 96 % of control | [10] 86 % of control and 112 % of control | [6] 98 % of control | [11] 93 % of control | endpoint: mean survival time, dose: 400.0 mg/kg/injection, schedule: Q04DX002 (ip), vehicle: saline 93 % of control | [12] 97 % of control and 106 % of control

CCCCNC(C)(C)C(SSSC(c1cccs1)C(C)(C)NCCCC)c1cccs1 (stereo not given)
inactive: endpoint: mean survival time, dose: 100.0 mg/kg/injection, schedule: Q01DX009 (ip), vehicle: saline sonified 100 % of control | endpoint: mean survival time, dose: 200.0 mg/kg/injection, schedule: Q01DX009 (ip), vehicle: saline sonified 103 % of control

c1ccc(C2=C(c3ccccc3)OC(c3ccccc3)=C(c3ccccc3)O2)cc1
inactive: [13] 92 % of control | endpoint: mean survival time, dose: 50.0 mg/kg/injection, schedule: Q01DX001 (ip), vehicle: saline with Tween-80 87 % of control | [1] 102 % of control | [14] 89 % of control | [3] 88 % of control

Cc1cc(C)c(S(=O)O)c(C)c1
inactive: [2] 103 % of control | [4] 103 % of control | [6] 103 % of control

c1ccc(CNc2nnnc3ccccc23)cc1
inactive: [14] 100 % of control | endpoint: mean survival time, dose: 200.0 mg/kg/injection, schedule: Q01DX001 (ip), vehicle: saline with Tween-80 88 % of control | [15] 94 % of control

O=C(O)CC(=O)O.[NH-]CC(O)C[N-]CC(O)CN.[Pt+2] (stereo not given)
inactive: endpoint: median survival time, dose: 10.0 mg/kg/injection, schedule: Q04DX003 (ip), vehicle: distilled water + Tween-80 101 % of control | endpoint: median survival time, dose: 20.0 mg/kg/injection, schedule: Q04DX003 (ip), vehicle: distilled water + Tween-80 101 % of control | endpoint: median survival time, dose: 40.0 mg/kg/injection, schedule: Q04DX003 (ip), vehicle: distilled water + Tween-80 104 % of control | endpoint: median survival time, dose: 66.5 mg/kg/injection, schedule: Q04DX003 (ip), vehicle: distilled water + Tween-80 107 % of control | endpoint: median survival time, dose: 80.0 mg/kg/injection, schedule: Q04DX003 (ip), vehicle: distilled water + Tween-80 106 % of control and 108 % of control | endpoint: median survival time, dose: 133.0 mg/kg/injection, schedule: Q04DX003 (ip), vehicle: distilled water + Tween-80 108 % of control | endpoint: median survival time, dose: 160.0 mg/kg/injection, schedule: Q04DX003 (ip), vehicle: distilled water + Tween-80 119 % of control | endpoint: median survival time, dose: 266.0 mg/kg/injection, schedule: Q04DX003 (ip), vehicle: distilled water + Tween-80 117 % of control | endpoint: median survival time, dose: 320.0 mg/kg/injection, schedule: Q04DX003 (ip), vehicle: distilled water + Tween-80 117 % of control

Cc1cccc(OCC(O)CN2CC2)c1 (stereo not given)
inactive: endpoint: median survival time, dose: 12.5 mg/kg/injection, schedule: Q01DX005 (ip), vehicle: saline with Tween-80 97 % of control and 107 % of control | endpoint: median survival time, dose: 25.0 mg/kg/injection, schedule: Q01DX005 (ip), vehicle: saline with Tween-80 115 % of control and 111 % of control | endpoint: median survival time, dose: 36.0 mg/kg/injection, schedule: Q01DX005 (ip), vehicle: saline with Tween-80 104 % of control | endpoint: median survival time, dose: 50.0 mg/kg/injection, schedule: Q01DX005 (ip), vehicle: saline with Tween-80 113 % of control and 108 % of control | endpoint: median survival time, dose: 60.0 mg/kg/injection, schedule: Q01DX005 (ip), vehicle: saline with Tween-80 113 % of control | endpoint: median survival time, dose: 100.0 mg/kg/injection, schedule: Q01DX005 (ip), vehicle: saline with Tween-80 106 % of control | endpoint: median survival time, dose: 166.66 mg/kg/injection, schedule: Q01DX005 (ip), vehicle: saline with Tween-80 110 % of control

CC(=O)OCC1OC(OC(C)=O)C(NC(=S)N(C)N=O)C(OC(C)=O)C1OC(C)=O (stereo not given)
inactive: endpoint: mean survival time, dose: 12.5 mg/kg/injection, schedule: Q04DX002 (ip), vehicle: distilled water + Tween-80 106 % of control | endpoint: mean survival time, dose: 25.0 mg/kg/injection, schedule: Q04DX002 (ip), vehicle: distilled water + Tween-80 103 % of control | endpoint: mean survival time, dose: 50.0 mg/kg/injection, schedule: Q04DX002 (ip), vehicle: distilled water + Tween-80 113 % of control | endpoint: mean survival time, dose: 100.0 mg/kg/injection, schedule: Q04DX002 (ip), vehicle: distilled water + Tween-80 118 % of control and 120 % of control

O=C(O)c1cccc(F)c1Cl
inactive: [7] 95 % of control | [9] 102 % of control

O=c1c(-c2ccccc2)c1-c1ccccc1
inactive: [8] 93 % of control

Ic1cccs1
inactive: [2] 95 % of control

C=C(NC(=O)CN)C(=O)O
inactive: [7] 100 % of control | [9] 95 % of control | [11] 95 % of control

CC(C)OC(N)=O
inactive: [2] 94 % of control | [3] 106 % of control | endpoint: mean survival time, dose: 100.0 mg/kg/injection, schedule: Q04DX003 (ip), vehicle: saline 97 % of control | [4] 102 % of control | [5] 103 % of control | endpoint: mean survival time, dose: 200.0 mg/kg/injection, schedule: Q04DX003 (ip), vehicle: saline 101 % of control | [6] 100 % of control | [16] 105 % of control | endpoint: mean survival time, dose: 400.0 mg/kg/injection, schedule: Q04DX003 (ip), vehicle: saline 100 % of control

COc1ccc(C(C)C(C)=O)cc1 (stereo not given)
inactive: endpoint: mean survival time, dose: 12.5 mg/kg/injection, schedule: Q01DX009 (ip), vehicle: saline with Tween-80 91 % of control | [13] 91 % of control | [1] 95 % of control

O=C(Nc1ccc(Cl)cc1)OCCN1CCOCC1
inactive: [3] 90 % of control | [8] 93 % of control | [5] 92 % of control | [10] 94 % of control | [16] 91 % of control | [12] 89 % of control

CC(/C=N\N=C(N)N)=N/N=C(N)N
inactive: endpoint: median survival time, dose: 5.0 mg/kg/injection, schedule: Q01DX009 (ip), vehicle: saline 94 % of control

Cc1c[nH]c(=O)c[n+]1[O-]
inactive: [3] 100 % of control | [5] 100 % of control | [16] 97 % of control

O=C(CC(O)(C(F)(F)F)C(F)(F)F)c1ccc(F)cc1
inactive: endpoint: mean survival time, dose: 100.0 mg/kg/injection, schedule: Q01DX009 (ip), vehicle: other 98 % of control | endpoint: mean survival time, dose: 200.0 mg/kg/injection, schedule: Q01DX009 (ip), vehicle: other 98 % of control | endpoint: mean survival time, dose: 400.0 mg/kg/injection, schedule: Q01DX009 (ip), vehicle: other 98 % of control

Nc1nc(-c2cccc([N+](=O)[O-])c2)c(N=Nc2ccccc2[N+](=O)[O-])s1
inactive: [14] 96 % of control | [15] 98 % of control

c1ccc(CC23CN(C4CCCCC4)CC24N(c2ccccc23)C23CN(C5CCCCC5)CC2(Cc2ccccc2)c2ccccc2N43)cc1 (stereo not given)
inactive: [14] 90 % of control

O=NN1CC2CCC1CC2
inactive: endpoint: mean survival time, dose: 5.0 mg/kg/injection, schedule: Q01DX001 (ip), vehicle: saline with Tween-80 98 % of control | endpoint: mean survival time, dose: 10.0 mg/kg/injection, schedule: Q01DX001 (ip), vehicle: saline with Tween-80 101 % of control

C(#CCNC1CCCCC1)CNC1CCCCC1
inactive: endpoint: mean survival time, dose: 25.0 mg/kg/injection, schedule: Q04DX002 (ip), vehicle: saline with Tween-80 94 % of control | endpoint: mean survival time, dose: 50.0 mg/kg/injection, schedule: Q04DX002 (ip), vehicle: saline with Tween-80 98 % of control

O=C(O)CC(C(=O)O)c1ccc([N+](=O)[O-])cc1 (stereo not given)
inactive: [3] 93 % of control | [5] 93 % of control | [16] 97 % of control

CC(O)(CCCCCCCC(C)(O)c1ccccc1)c1ccccc1 (stereo not given)
inactive: [8] 113 % of control | [10] 103 % of control | [12] 88 % of control
